“Also recorded” adds a separate entry of the source.

The subject of data set [1] is Akt. As to the kind of experiment: Downstream Akt activation in mouse brain (p-Akt immunoblotting, p-Akt 473 ELISA). It is filed as in vivo. The conditions noted are these: 2.5 mg/kg/day oral, 3 weeks. As for the experimental part: PathScan Phospho-Akt1 (Ser473) Sandwich ELISA kit was purchased from Cell Signaling (Cat. #7160). 100 μl sample in sample diluent (supplied in the kit) was added to each well and incubated overnight at 4° C. After 4× wash with 200 ul wash buffer (supplied in the kit), 100 ul/well detection antibody was added and incubated for 1 hour at 37° C. After 4× wash, 100 μl of HRP-linked secondary antibody (supplied in the kit) was added and incubated for 30 minutes at 37° C. After a final wash, 100 μl of TMB substrate was added to each well and incubated for 10 minutes at 37° C. The reaction was stopped by adding 100 μl/well stop solution. Record the values of each well using microplate reader at 450 nm and 650 nm. The optical density was determined by the subtraction of the reading at 650 nm from the reading s at 450 nm.
Male C57BL/6 mice aged of two months were administrated orally with 4′-DMA-7,8-DHF derivatives at a single dose of 1 mg/kg for 4 h. The control mice were injected with saline. The mice were sacrificed and brains were homogenated and ultracentrafuged. The supernatant (40 μg) was employed for SDS-PAGE and immunoblotting analysis with indicated antibodies, respectively. Male C57BL/6 mice aged of two months were administrated orally with compound (i) or (m) at the dose of 5 mg/kg/day each and compound o or p at the dose of 2.5 mg/kg/day each for 21 days. BrdU (100 mg/kg) was i. p. injected two hours before the TrkB agonist treated animals were sacrificed and the hippocampal section lysates were analyzed by immunoblotting with p-TrkB and total TrkB antibodies, p-AKT ELISA.
(In general: In western blotting, separated proteins are transferred to a membrane and probed.)

A short description of data set [2]: Human liver microsomal stability assay. It is filed as in vitro ADME. The conditions noted are these: human liver microsomes, 1 h incubation. The source says:
To explore these compounds' in vitro ADMET profiles, we conducted numerous in vitro assays.

Data set [3] has as its target T1, CYP1A2 (Homo sapiens, UniProt P05177).
T1 sequence (P05177 1-516): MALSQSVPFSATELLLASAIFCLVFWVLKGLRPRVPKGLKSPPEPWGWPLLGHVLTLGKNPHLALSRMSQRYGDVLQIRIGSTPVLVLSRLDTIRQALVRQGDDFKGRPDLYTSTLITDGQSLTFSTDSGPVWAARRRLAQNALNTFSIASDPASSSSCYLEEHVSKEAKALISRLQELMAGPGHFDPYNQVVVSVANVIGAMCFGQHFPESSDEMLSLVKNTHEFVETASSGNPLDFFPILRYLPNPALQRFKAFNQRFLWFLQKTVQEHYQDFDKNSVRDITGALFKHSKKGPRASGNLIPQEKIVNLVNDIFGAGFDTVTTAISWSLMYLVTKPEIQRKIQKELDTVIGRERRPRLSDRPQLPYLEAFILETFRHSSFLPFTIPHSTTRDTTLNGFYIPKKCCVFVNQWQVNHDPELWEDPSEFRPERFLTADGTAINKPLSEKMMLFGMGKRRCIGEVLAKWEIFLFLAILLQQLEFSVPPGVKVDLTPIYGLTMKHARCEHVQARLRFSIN
The data set is described as follows: CYP screen inhibition. It is filed as in vitro ADME. As for the experimental part: (§1) At 30 μM, the inhibition patterns contained similar trends. To test the possible cardiovascular toxicity, hERG inhibition triggered by compound o was examined.

The target in data set [4] is hERG (Homo sapiens, UniProt Q12809). As to the kind of experiment: hERG inhibition assay. As for the experimental part: as §1
In general terms: hERG is a cardiac potassium channel; its block is linked to QT prolongation.

A short description of data set [5]: In vivo pharmacokinetic studies in mice. On the set-up: species or system mouse. As to conditions: in vivo. As for the experimental part: For compound a, the standard dosage of 1 mg/kg via i.v. injection and 5 mg/kg for P.O. route was employed. […] Presumably, the dosage is too low for the in vivo PK assay. Thus, the doses of the tested compound o were increased. […] Moreover, the bioavailability is around 2% for compound o at a 10 mg/kg dosage.
Twenty to thirty grams mice within the age of 6-8 weeks old were administrated with the indicated compounds i. v. or orally. At different time points (3, 10, 30, 60, 120, 240, 360 and 480 min), blood aliquots (300-400 μl) were collected in tubes coated with lithium heparin, mixed gently, then kept on ice and centrifuged at 2500×g for 15 min at 4° C., within 1 h of collection. The plasma was then harvested and kept frozen at −20° C. until further processing. For each time point, 3 mice/group were employed. The plasma samples were analyzed by HPLC.

hERG, sequence (Q12809 whole entry): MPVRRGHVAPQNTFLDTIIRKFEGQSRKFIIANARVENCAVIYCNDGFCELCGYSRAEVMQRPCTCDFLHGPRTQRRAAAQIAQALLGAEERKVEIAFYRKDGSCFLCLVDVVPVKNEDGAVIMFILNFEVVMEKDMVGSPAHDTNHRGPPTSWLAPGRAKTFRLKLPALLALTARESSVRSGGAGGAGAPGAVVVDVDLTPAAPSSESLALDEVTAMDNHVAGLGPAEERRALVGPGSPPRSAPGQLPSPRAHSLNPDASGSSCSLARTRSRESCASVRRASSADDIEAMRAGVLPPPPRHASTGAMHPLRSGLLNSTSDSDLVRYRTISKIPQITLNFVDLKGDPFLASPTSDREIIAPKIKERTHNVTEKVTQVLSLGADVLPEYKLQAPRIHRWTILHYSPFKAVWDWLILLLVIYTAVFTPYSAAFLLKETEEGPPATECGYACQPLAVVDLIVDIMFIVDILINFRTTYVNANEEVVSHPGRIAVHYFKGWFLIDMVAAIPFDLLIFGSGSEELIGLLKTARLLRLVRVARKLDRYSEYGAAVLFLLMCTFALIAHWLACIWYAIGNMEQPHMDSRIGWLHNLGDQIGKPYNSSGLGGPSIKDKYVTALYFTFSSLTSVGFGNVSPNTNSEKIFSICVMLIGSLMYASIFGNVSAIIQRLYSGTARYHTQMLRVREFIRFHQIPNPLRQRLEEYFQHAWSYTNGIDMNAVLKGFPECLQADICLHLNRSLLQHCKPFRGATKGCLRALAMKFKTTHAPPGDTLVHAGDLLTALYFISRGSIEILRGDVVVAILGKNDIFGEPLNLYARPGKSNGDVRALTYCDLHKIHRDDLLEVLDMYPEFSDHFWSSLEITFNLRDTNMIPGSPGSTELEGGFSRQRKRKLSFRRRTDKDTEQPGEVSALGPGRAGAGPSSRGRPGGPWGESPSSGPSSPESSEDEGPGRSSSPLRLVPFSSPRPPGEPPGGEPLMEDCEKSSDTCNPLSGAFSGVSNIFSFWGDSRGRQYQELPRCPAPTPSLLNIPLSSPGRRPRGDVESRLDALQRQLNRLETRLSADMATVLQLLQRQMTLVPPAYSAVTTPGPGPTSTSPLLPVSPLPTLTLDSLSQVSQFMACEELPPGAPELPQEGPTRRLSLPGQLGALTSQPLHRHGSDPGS

Turning to `Cc1nc2ccc3c(=O)cc(-c4ccc(N5CCCC5)cc4)oc3c2[nH]1` [compound o, 2-methyl-8-(4-(pyrrolidin-1-yl)phenyl)chromeno[7,8-d]imidazol-6(1H)-one], the “Akt activation (quantitative p-Akt ELISA)” value in data set [1] is “notably activated Akt”. The “remaining unchanged after incubation” value in data set [2] came to 25.4%. Further, the inhibition – broadly, the change of the read-out against control, counted positive when it falls – at 3 µM in data set [3] was about 27.3%. Moreover, in data set [4], the hERG inhibition result is on record as “suboptimal; also recorded: did not possess any concentration-dependent inhibition activity of hERG”. The half-life – broadly, the time needed for the level to fall by half in the phase considered – in data set [5] (C57BL/6, mouse, 3 mg/kg) is about 1.72 h. The oral bioavailability in data set [5] (C57BL/6, mouse, po, 10 mg/kg) is listed as 2%. Besides, the area under the curve AUC(0-t) (usually the area under the concentration-time curve up to a stated or last time point) in data set [5] (mouse, 3 mg/kg) was about 312 ng·h/mL. Besides, the bioavailability (commonly the share of a dose that reaches the circulation, judged against a reference dose that is usually intravenous) in data set [5] (mouse, po, 10 mg/kg) was about 2%.

Values taken from patent US10596145B2, “Heterocyclic flavone derivatives, compositions, and methods related thereto” (Emory University, priority 2012, dated 2020).
